Data reported in US9345774B2, “Topical composition comprising a film-forming polymer for delivering an active ingredient to skin” (LEO PHARMA A/S, priority 2012, dated 2016).

Assay: Chemical stability of calcipotriol in contact with container inner coating
Type: physicochemical

## C=C1/C(=C\C=C2/CCC[C@]3(C)[C@@H]([C@H](C)/C=C/[C@@H](O)C4CC4)CC[C@@H]23)C[C@@H](O)C[C@@H]1O [calcipotriol]
Epoxyphenol resin inner lacquer
  chemical stability of calcipotriol: unacceptable chemical degradation
polyimide-polyamide resin as inner coating
  chemical stability of calcipotriol: satisfactory
